Source: patent publication US10681909B2, “Herbicidal triazoles” (FMC Corporation, priority 2014, dated 2020)

Key:
sedge, umbrella = test: Test C flooded paddy test; type: in vivo, Cyperus difformis; details: Flood, applied to paddy water, rating after 13 to 15 d
Source text: At time of treatment, test pots were flooded to 3 cm above the soil surface, treated by application of test compounds directly to the paddy water, and then maintained at that water depth for the duration of the test. Treated plants and controls were maintained in a greenhouse for 13 to 15 d, after which time all species were compared to controls and visually evaluated. […] A dash (-) response means no test result.

horseweed = test: Test E preemergence; type: in vivo, Conyza canadensis; details: scale 0 to 100
Source text: Seeds of plant species selected from corn (Zea mays), soybean (Glycine max), lambsquarters (Chenopodium album), poinsettia, wild (wild poinsettia, Euphorbia heterophylla), pigweed, palmer (palmer pigweed, Amaranthus palmeri), waterhemp (common waterhemp, Amaranthus rudis), surinam grass (Brachiaria decumbens), crabgrass, large (large crabgrass, Digitaria sanguinalis), crabgrass, Brazilian (Brazilian crabgrass, Digitaria horizontalis), panicum, fall (fall panicum, Panicum dichotomiflorum), foxtail, giant (giant foxtail, Setaria faberii), foxtail, green (green foxtail, Setaria viridis), goosegrass (Eleusine indica), johnsongrass (Sorghum halepense), ragweed (common ragweed, Ambrosia elatior), barnyardgrass (Echinochloa crus-galli), sandbur (southern sandbur, Cenchrus echinatus), arrowleaf sida (Sida rhombifolia), ryegrass, Italian (Italian ryegrass, Lolium multiflorum), dayflower, VA (Virginia dayflower, Commelina virginica), field bindweed (Convolvulus arvensis), cocklebur (common cocklebur, Xanthium strumarium), morningglory (Ipomoea coccinea), nightshade (eastern black nightshade, Solanum ptycanthum), kochia (Kochia scoparia), nutsedge, yellow (yellow nutsedge, Cyperus esculentus), smartweed (ladysthumb smartweed, Polygonum persicaria), velvetleaf (Abutilon theophrasti), horseweed (Conyza canadensis), and beggarticks (hairy beggarticks, Bidens pilosa), were planted into a silt loam soil and treated preemergence with test chemicals formulated in a non-phytotoxic solvent mixture which included a surfactant.
At the same time, plants from these crop and weed species and also waterhemp_RES1, (ALS & Triazine resistant common waterhemp, Amaranthus rudis), and waterhemp_RES2, (ALS & HPPD resistant common waterhemp, Amaranthus rudis) were planted in pots containing Sunshine Redi-Earth® planting medium comprising spaghnum peat moss, vermiculite, starter nutrients and dolomitic limestone were treated with postemergence applications of test chemicals formulated in the same manner. Plants ranged in height from 2 to 18 cm for postemergence treatments (1- to 4-leaf stage). Treated plants and controls were maintained in a greenhouse for 14 to 21 d, after which time all species were compared to controls and visually evaluated. Plant response ratings, summarized in Table E, are based on a scale of 0 to 100 where 0 is no effect and 100 is complete control. A dash (-) response means no test result.

Row | SMILES | Sedge, Umbrella plant response rating (0 to 100) (sedge, umbrella; 31 g ai/ha) | Sedge, Umbrella plant response rating (0 to 100) (sedge, umbrella; 62 g ai/ha) | Sedge, Umbrella plant response rating (0 to 100) (sedge, umbrella; 125 g ai/ha) | Sedge, Umbrella plant response rating (0 to 100) (sedge, umbrella; 250 g ai/ha) | Plant response rating (horseweed; 31 g ai/ha) | Plant response rating (horseweed; 62 g ai/ha) | Plant response rating (horseweed; 125 g ai/ha) | Plant response rating (horseweed; 250 g ai/ha)
1 | Cn1nc(-c2ccc(F)cc2)nc1Oc1cccc(C(F)(F)F)c1 [Compound 5, 3-(4-fluorophenyl)-1-methyl-5-[3-(trifluoromethyl)phenoxy]-1H-1,2,4-triazole] | 0 | 0 | 20 | 40 | – | – | – | –
2 | Fc1ccc(-c2nc(OCC(F)(F)F)n(Cc3ccnc(C(F)(F)F)c3)n2)cc1 [Compound 30] | – | – | – | – | 100 | 100 | 100 | 100
